Assay results as given in ChEMBL document CHEMBL4354805, “Discovery of MK-8719, a Potent O-GlcNAcase Inhibitor as a Potential Treatment for Tauopathies” (J Med Chem, 2019).

Tests used:
[1] = Ratio of drug uptake in rat brain to plasma at 3 mg/kg, po measured after 24 hrs; type: ADME, organism-based; conditions: read-out: BPR
[2] = Drug uptake in rat brain at 3 mg/kg, po measured after 24 hrs; type: ADME, organism-based; conditions: in vivo
Cytochrome P450 2D6 = Cytochrome P450 2D6 (Homo sapiens, UniProt P10635); experiment: Inhibition of CYP2D6 (unknown origin); type: ADME
[3] = biological target: Sodium channel protein type 5 subunit alpha (Homo sapiens, UniProt Q14524); experiment: Inhibition of Nav1.5 (unknown origin)
[4] = Ratio of drug uptake in rat brain to plasma at 3 mg/kg, po measured after 8 hrs; type: ADME, organism-based; conditions: read-out: BPR
[5] = Fraction unbound in human plasma; type: ADME, cell-free
[6] = biological target: Voltage-dependent L-type calcium channel subunit alpha-1C (Homo sapiens, UniProt Q13936); experiment: Inhibition of Cav1.2 (unknown origin)
[7] = Half life in Wistar Han rat at 2 mg/kg, iv; type: ADME, organism-based; conditions: in vivo
MDR1 = experiment: Apparent permeability in pig LLC-PK1 cells transfected with MDR1; type: ADME, cell-based, Sus scrofa
[8] = Oral bioavailability in Wistar Han rat at 10 mg/kg; type: ADME, organism-based; conditions: in vivo
[9] = Tmax in rat brain at 10 mg/kg, po measured upto 24 hrs; type: ADME, organism-based
[10] = AUC (0 to 24 hrs) in rat brain at 10 mg/kg, po measured upto 24 hrs; type: ADME, organism-based; design: dose 10 mg/kg, time < 24 hr, route oral; conditions: in vivo
[11] = Clearance in Wistar Han rat at 2 mg/kg, iv; type: ADME, organism-based; conditions: in vivo
[12] = Drug uptake in rat brain at 3 mg/kg, po measured after 8 hrs; type: ADME, organism-based; conditions: in vivo
[13] = Fraction unbound in Wistar Han rat plasma at 2.5 uM by equilibrium dialysis; type: ADME, cell-free
[14] = biological target: T1, Nuclear receptor subfamily 1 group I member 2 (Homo sapiens, UniProt O75469); experiment: Activation of PXR (unknown origin) assessed as CYP3A4 induction
T1 sequence (O75469 whole entry): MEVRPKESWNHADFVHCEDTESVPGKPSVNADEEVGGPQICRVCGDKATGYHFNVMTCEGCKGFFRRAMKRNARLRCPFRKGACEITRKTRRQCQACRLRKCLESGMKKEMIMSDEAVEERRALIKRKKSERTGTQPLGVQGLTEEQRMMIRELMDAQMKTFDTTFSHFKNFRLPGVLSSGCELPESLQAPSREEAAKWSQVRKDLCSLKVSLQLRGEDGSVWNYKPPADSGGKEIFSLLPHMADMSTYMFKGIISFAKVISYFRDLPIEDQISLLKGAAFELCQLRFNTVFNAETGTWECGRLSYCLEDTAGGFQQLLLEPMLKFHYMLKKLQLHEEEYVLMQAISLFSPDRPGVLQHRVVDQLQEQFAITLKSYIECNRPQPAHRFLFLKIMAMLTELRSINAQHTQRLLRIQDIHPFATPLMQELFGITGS

[15] = Ratio of Cmax in brain to plasma in rat at 10 mg/kg, po; type: ADME, organism-based
Cytochrome P450 2C9 = Cytochrome P450 2C9 (Homo sapiens, UniProt P11712); experiment: Inhibition of CYP2C9 (unknown origin); type: ADME
[16] = biological target: Voltage-gated inwardly rectifying potassium channel KCNH2 (Homo sapiens, UniProt Q12809); experiment: Displacement of MK-0499 from human ERG
[17] = Volume of distribution at steady state in Wistar Han rat at 2 mg/kg, iv or 10 mg/kg, po; type: ADME, organism-based; conditions: in vivo, read-out: Vdss
[18] = Fraction unbound in human plasma at 2.5 uM by equilibrium dialysis; type: ADME, cell-free
Cytochrome P450 3A4 = Cytochrome P450 3A4 (Homo sapiens, UniProt P08684); experiment: Inhibition of CYP3A4 (unknown origin); type: ADME
[19] = AUCN in Wistar Han rat at 10 mg/kg, po; type: ADME, organism-based; conditions: in vivo
[20] = biological target: T2, Beta-hexosaminidase subunit beta (Homo sapiens, UniProt P07686); experiment: Inhibition of human beta hexosaminidase assessed as inhibitory constant using 4-methylumbelliferyl N-acetyl-beta-D-glucosaminide dihydrate as substrate measured every 60 sec for 45 mins by fluorescence spectrophotometry
T2 sequence (P07686 whole entry): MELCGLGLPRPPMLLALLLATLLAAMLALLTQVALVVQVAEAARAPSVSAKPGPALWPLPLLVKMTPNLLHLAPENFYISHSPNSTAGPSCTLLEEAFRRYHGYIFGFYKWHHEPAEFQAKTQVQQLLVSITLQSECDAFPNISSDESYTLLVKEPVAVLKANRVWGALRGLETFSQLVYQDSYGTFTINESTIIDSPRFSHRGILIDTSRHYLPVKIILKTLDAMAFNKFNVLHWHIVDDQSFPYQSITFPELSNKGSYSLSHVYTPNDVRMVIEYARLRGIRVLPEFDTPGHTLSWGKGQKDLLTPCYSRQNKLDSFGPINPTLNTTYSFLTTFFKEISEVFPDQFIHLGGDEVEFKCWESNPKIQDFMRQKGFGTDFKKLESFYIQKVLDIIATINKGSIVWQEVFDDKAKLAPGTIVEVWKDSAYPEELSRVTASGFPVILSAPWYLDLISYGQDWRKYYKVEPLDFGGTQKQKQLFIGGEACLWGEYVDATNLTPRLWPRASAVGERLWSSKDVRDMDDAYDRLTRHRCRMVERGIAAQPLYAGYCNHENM

Rattus norvegicus [21] = experiment: Elevation of O-protein in rat brain at 10 mg/kg, po measured after 24 hrs; type: functional
[22] = Oral bioavailability in Wistar Han rat at 3 mg/kg; type: ADME, organism-based; conditions: in vivo
Rattus norvegicus [23] = experiment: Elevation of O-protein in rat brain at 3 mg/kg, po measured after 8 hrs relative to control; type: functional
[24] = AUCN in Wistar Han rat at 3 mg/kg, po; type: ADME, organism-based; conditions: in vivo
[25] = Volume of distribution at steady state in Wistar Han rat at 2 mg/kg, iv or 3 mg/kg, po; type: ADME, organism-based; conditions: in vivo, read-out: Vdss
Protein O-GlcNAcase [26] = biological target: T3, Protein O-GlcNAcase (Rattus norvegicus, UniProt Q8VIJ5); experiment: Inhibition of OGA in rat PC12 cells assessed as OGlcNAcylated protein level incubated for 24 hrs by ELISA; type: cell-based
T3 sequence (Q8VIJ5 whole entry): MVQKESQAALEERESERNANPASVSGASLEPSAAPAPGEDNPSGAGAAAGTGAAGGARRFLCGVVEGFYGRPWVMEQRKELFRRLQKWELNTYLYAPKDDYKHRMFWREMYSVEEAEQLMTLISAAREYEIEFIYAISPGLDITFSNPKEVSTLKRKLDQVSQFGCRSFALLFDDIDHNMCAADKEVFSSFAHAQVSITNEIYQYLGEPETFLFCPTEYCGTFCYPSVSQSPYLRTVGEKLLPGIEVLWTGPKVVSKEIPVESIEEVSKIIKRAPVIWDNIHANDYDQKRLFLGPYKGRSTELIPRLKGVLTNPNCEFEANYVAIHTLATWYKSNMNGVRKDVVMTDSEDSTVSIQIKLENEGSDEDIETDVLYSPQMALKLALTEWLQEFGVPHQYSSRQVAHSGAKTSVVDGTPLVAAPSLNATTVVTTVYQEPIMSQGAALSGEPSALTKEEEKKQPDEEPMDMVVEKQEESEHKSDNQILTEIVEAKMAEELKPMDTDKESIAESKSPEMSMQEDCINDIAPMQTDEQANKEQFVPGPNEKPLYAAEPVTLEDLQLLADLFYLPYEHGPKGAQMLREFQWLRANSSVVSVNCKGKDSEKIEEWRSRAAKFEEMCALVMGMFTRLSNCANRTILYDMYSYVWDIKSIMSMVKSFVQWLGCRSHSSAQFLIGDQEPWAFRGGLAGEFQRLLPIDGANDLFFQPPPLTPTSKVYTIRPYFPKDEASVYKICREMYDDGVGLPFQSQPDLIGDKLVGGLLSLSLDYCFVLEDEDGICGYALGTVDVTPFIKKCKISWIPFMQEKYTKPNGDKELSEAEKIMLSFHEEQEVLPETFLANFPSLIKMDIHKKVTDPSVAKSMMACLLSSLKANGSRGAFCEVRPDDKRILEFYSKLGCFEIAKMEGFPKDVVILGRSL

Protein O-GlcNAcase [27] = biological target: T4, Protein O-GlcNAcase (Homo sapiens, UniProt O60502); experiment: Inhibition of recombinant human OGA
T4 sequence (O60502 whole entry): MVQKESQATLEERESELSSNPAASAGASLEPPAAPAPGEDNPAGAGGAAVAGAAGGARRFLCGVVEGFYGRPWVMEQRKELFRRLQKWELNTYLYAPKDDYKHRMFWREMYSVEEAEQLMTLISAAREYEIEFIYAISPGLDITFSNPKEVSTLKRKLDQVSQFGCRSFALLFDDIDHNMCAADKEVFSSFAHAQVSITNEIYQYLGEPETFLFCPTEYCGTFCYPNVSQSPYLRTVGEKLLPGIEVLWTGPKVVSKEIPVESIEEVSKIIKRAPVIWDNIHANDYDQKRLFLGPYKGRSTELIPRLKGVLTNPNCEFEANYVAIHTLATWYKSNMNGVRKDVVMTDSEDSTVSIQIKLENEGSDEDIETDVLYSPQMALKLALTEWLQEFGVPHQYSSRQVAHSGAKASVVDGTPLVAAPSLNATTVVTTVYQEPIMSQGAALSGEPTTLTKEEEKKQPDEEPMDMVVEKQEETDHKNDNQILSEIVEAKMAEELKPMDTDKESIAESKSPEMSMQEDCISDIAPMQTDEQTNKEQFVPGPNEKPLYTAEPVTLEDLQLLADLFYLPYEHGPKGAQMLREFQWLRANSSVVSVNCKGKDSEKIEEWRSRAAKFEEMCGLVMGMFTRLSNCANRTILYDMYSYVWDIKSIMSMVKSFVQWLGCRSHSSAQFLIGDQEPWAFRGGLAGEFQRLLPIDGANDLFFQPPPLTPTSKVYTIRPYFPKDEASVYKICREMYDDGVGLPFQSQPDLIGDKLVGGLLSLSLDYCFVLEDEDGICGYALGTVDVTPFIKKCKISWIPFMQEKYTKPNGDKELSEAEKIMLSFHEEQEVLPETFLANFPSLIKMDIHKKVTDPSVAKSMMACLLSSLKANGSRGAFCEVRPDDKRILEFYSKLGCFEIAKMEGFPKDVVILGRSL

Rattus norvegicus [28] = experiment: Increase in O-protein AUC in rat brain at 10 mg/kg, po measured upto 24 hrs; type: ADME, organism-based; conditions: in vivo
Rattus norvegicus [29] = experiment: Elevation of O-protein in rat brain at 3 mg/kg, po measured after 24 hrs relative to control; type: functional
[30] = Half life in Wistar Han rat at 1 mg/kg, iv; type: ADME, organism-based; conditions: in vivo
[31] = Clearance in Wistar Han rat at 1 mg/kg, iv; type: ADME, organism-based; conditions: in vivo
[32] = Volume of distribution at steady state in Wistar Han rat at 1 mg/kg, iv or 3 mg/kg, po; type: ADME, organism-based; conditions: in vivo, read-out: Vdss

Sodium channel protein type 5 subunit alpha, sequence (Q14524 whole entry): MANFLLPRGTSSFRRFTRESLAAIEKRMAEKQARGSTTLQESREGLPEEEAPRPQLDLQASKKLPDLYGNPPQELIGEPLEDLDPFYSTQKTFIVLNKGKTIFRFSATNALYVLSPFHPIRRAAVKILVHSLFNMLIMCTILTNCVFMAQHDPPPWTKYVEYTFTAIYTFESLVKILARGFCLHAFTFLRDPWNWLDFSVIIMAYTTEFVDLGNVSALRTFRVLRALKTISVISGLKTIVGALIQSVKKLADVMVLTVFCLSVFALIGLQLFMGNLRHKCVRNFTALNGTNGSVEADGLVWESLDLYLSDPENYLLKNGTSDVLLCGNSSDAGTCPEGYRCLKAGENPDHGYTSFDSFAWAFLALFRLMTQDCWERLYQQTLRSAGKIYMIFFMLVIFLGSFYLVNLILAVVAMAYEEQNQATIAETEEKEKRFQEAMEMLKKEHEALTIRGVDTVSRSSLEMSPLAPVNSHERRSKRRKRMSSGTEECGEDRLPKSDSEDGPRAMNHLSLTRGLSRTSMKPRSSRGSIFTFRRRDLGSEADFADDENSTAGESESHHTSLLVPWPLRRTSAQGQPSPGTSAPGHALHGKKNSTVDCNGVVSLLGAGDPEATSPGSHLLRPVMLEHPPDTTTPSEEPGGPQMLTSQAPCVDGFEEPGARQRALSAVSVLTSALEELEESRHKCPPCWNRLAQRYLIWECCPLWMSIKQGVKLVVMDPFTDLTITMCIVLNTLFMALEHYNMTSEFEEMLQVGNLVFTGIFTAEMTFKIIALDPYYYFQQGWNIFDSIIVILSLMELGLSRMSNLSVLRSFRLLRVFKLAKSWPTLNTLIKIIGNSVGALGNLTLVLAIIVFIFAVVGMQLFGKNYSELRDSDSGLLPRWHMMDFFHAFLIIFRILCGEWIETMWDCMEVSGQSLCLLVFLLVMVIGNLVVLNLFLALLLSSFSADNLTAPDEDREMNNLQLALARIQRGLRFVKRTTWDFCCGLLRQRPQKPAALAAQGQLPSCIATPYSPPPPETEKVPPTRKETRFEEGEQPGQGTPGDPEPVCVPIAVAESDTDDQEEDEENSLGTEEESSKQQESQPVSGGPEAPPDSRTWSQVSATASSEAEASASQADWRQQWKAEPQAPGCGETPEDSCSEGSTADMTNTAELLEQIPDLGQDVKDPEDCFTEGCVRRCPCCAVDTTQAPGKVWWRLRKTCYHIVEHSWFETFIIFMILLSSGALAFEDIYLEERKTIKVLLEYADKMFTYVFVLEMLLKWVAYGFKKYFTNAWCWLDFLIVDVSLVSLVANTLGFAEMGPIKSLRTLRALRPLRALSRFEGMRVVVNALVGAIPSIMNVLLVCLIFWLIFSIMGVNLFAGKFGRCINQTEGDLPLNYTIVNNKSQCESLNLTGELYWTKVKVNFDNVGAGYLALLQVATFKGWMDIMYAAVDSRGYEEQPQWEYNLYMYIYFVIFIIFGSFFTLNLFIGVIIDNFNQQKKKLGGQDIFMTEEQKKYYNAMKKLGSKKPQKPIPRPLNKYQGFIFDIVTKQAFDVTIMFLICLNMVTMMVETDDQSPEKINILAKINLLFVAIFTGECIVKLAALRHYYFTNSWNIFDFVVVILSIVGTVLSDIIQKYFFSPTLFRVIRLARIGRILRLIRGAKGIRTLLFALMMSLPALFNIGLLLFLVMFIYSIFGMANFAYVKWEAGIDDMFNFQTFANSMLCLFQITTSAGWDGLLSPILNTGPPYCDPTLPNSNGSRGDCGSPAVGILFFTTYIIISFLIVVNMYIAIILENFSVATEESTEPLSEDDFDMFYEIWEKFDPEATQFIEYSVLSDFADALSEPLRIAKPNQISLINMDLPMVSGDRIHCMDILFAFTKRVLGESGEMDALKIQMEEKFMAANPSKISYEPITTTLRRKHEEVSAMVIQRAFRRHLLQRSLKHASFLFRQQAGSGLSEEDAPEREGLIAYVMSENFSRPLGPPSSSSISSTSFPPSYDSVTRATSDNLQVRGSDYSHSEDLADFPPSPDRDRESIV
Cytochrome P450 2D6, sequence (P10635 whole entry): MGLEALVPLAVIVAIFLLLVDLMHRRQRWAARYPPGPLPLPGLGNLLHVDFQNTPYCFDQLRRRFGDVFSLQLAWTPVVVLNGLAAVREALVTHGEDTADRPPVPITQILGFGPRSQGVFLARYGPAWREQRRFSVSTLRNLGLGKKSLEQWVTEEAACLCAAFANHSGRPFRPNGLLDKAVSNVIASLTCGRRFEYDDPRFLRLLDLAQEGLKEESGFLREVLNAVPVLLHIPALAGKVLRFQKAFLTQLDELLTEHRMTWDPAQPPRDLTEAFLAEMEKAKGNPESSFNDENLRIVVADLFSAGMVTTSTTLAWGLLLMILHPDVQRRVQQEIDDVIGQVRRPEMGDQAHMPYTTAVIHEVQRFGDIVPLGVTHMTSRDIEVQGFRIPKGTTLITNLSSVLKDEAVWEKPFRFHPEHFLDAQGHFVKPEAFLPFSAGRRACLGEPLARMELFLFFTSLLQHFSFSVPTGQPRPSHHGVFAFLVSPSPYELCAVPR
Cytochrome P450 3A4, sequence (P08684 whole entry): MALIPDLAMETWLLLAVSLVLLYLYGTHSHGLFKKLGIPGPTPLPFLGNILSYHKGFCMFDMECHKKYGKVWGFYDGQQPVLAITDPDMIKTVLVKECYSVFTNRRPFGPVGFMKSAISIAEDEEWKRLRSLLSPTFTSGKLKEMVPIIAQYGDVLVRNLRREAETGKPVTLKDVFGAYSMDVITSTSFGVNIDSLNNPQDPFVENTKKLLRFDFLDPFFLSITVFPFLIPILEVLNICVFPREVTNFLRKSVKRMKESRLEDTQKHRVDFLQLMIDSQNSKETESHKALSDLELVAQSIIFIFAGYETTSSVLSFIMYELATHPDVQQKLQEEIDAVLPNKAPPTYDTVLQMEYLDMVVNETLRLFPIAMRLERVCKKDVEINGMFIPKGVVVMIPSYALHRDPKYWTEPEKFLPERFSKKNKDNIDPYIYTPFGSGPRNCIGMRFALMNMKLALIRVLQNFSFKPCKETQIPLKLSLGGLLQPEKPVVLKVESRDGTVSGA
Voltage-gated inwardly rectifying potassium channel KCNH2, sequence (Q12809 whole entry): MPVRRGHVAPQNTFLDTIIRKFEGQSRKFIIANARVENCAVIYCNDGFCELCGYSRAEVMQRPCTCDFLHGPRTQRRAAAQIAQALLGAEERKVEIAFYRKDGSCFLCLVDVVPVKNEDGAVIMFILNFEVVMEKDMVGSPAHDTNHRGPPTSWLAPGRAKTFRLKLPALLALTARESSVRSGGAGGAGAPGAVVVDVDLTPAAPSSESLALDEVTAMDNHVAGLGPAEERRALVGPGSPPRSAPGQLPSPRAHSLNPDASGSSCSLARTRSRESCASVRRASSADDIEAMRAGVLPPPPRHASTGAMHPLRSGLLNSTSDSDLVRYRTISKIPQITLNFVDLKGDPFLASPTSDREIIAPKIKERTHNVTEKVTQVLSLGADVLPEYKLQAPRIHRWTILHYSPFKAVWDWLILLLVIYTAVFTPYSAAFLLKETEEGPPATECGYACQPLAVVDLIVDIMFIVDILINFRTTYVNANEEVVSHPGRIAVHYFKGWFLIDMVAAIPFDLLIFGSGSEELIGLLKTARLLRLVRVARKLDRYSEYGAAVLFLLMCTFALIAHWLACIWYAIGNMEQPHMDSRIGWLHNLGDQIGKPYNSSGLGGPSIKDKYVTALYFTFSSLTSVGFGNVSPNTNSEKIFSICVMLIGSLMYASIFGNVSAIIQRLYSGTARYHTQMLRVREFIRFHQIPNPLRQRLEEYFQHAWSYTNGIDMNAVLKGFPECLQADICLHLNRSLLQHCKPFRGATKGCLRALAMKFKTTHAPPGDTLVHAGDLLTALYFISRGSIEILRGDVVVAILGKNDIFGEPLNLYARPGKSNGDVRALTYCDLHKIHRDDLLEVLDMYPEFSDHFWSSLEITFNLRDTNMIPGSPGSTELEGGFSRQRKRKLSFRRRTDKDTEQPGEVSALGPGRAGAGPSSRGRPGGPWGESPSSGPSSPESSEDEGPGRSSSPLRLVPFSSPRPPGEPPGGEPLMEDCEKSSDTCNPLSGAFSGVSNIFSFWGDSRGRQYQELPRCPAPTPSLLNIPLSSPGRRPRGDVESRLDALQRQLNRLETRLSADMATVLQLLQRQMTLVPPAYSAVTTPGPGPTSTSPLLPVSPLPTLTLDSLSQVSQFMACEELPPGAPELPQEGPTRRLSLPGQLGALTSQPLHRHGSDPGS
Cytochrome P450 2C9, sequence (P11712 whole entry): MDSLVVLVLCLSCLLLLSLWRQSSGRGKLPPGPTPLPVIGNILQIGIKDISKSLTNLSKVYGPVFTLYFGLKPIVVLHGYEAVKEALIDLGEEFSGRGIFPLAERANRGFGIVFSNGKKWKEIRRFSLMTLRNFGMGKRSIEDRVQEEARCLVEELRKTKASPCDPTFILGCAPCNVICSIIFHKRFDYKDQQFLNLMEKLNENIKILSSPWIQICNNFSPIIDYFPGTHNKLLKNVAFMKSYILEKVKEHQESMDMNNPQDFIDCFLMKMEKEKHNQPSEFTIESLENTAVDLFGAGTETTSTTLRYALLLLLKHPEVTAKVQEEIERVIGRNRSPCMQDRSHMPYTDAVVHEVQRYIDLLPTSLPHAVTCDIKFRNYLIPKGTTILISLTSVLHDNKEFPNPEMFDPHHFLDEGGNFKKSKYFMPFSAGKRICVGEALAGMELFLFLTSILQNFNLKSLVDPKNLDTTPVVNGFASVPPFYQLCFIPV

| Structure (SMILES) | Kp at 24 h [1] | Drug uptake [2] [nmol/g] | Kp at 8 h [4] | half-life [7] [h] | Papp (MDR1) [×10⁻⁶ cm/s] | Tmax [9] [h] | AUC [10] [nM·h/g] | clearance [11] [mL/min/kg] | Drug uptake [12] [nmol/g] | fraction unbound at 2.5 µM [13] | fraction unbound at 2.5 µM [18] | Ki [20] [nM] | fold change (FC) (Rattus norvegicus [21]) | bioavailability [22] [%] | fold change (FC) (Rattus norvegicus [23]) | AUC/dose [24] [µM·kg·h/mg] | Vd [25] [L/kg] | EC50 (Protein O-GlcNAcase [26]) [nM] | Ki (Protein O-GlcNAcase [27]) [nM] | fold change (FC) (Rattus norvegicus [28]) | also measured |
| --- | --- | --- | --- | --- | --- | --- | --- | --- | --- | --- | --- | --- | --- | --- | --- | --- | --- | --- | --- | --- | --- |
| CCNC1=N[C@@H]2[C@@H](O)[C@H](O)[C@@H](CO)O[C@@H]2S1 | > 2.7 | 0.051 | 0.94 | 1.4 | ≤ 1 | 8 | 1.14 | 25 | 0.185 | 0.73 | 0.76 | > 10000 | – | – | – | – | – | – | – | – | IC50 (Cytochrome P450 2D6): > 50000 nM; IC50 [3]: > 30000 nM; fraction unbound [5]: 0.76; IC50 [6]: > 30000 nM; bioavailability [8]: 30%; EC50 [14]: > 30000 nM; Kp [15]: 0.1; IC50 (Cytochrome P450 2C9): > 50000 nM; IC50 [16]: > 30000 nM; Vd [17]: 1.5 L/kg; IC50 (Cytochrome P450 3A4): > 50000 nM; AUC/dose [19]: 0.8 µM·kg·h/mg |
| CNC1=N[C@@H]2[C@H](F)[C@H](O)[C@@H](C(F)F)O[C@@H]2S1 | – | – | 0.189 | 4.29 | 20 | 8 | 35.91 | 11.4 | 0.142 | 0.93 | 0.97 | > 10000 | 2.04 | 90.4 | 2.51 | 4.27 | 2.96 | 58.2 | 23 | 11.69 | – |
| CN(C)C1=N[C@@H]2[C@@H](O)[C@H](O)[C@@H](C(F)F)O[C@@H]2S1 | 3.03 | 0.049 | 1.56 | 3.81 | 14 | 12 | 4.89 | 70.5 | 0.147 | 0.95 | > 0.99 | 3900 | 2.83 | 49.7 | 2.53 | 0.43 | 10.3 | 31.2 | 2.4 | 34.18 | fold change (FC) (Rattus norvegicus [29]): 2.57 |
| CNC1=N[C@@H]2[C@H](F)[C@H](O)[C@@H](CF)O[C@@H]2S1 | – | – | – | – | 26 | – | – | – | – | > 0.99 | > 0.99 | > 10000 | – | 60.5 | – | 2.96 | – | 328 | 35 | – | half-life [30]: 1.18 h; clearance [31]: 14.4 mL/min/kg; Vd [32]: 0.85 L/kg |
